“And” between values parts separate entries of the source, which are not always exact repeats. Identical values can stand only once.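 Compound exposure: 48 hours, 5 concentrations, 96-well plates. GI50 is the concentration that inhibits growth by half. TGI: concentration producing complete growth inhibition.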
Assays:
Assay in all cases: NCI-60 cell line screen, 48 h
MCF7 breast = test system: MCF7 breast
BT-549 breast = test system: BT-549 breast
HT29 colon = test system: HT29 colon
OVCAR-8 ovarian = test system: OVCAR-8 ovarian
UO-31 renal = test system: UO-31 renal
HCC-2998 colon = test system: HCC-2998 colon
OVCAR-3 ovarian = test system: OVCAR-3 ovarian
SW-620 colon = test system: SW-620 colon
HOP-92 NSCLC = test system: HOP-92 NSCLC
PC-3 prostate = test system: PC-3 prostate

SMILES | TGI (MCF7 breast) [µM] | TGI (BT-549 breast) [µM] | TGI (HT29 colon) [µM] | TGI (OVCAR-8 ovarian) | TGI (UO-31 renal) | TGI (HCC-2998 colon) | TGI (OVCAR-3 ovarian) | TGI (SW-620 colon) [µM] | TGI (HOP-92 NSCLC) | TGI (PC-3 prostate) [µM] | GI50 (MCF7 breast) [µM] | GI50 (BT-549 breast) [µM] | GI50 (HT29 colon) [µM] | GI50 (OVCAR-8 ovarian) | GI50 (UO-31 renal) | GI50 (HCC-2998 colon) | GI50 (OVCAR-3 ovarian) | GI50 (SW-620 colon) [µM] | GI50 (HOP-92 NSCLC) [µM] | GI50 (PC-3 prostate) [µM]
Cc1[nH]nc(C(F)(F)F)c1N=NN(C)C | 14.6 | 24.9 | 34.1 | 24.6 µM | 5.03 µM | 31.5 µM | 22.1 µM | > 100 | 23.5 µM | 25.1 |  |  |  |  |  |  |  |  |  | 
CCOC(=O)c1cc2cc3c4c(c2oc1=O)CCCN4CCC3 | 56.3 | > 100 | > 100 | 72.9 µM | > 100 µM | > 100 µM | 93.9 µM | > 100 | 58 µM | 97.5 |  |  |  |  |  |  |  |  |  | 
CC(=O)Oc1ccc(C23c4ccccc4C2(OC(C)=O)c2cc(OC(C)=O)ccc23)cc1 (stereo not drawn) | > 100 | 6.49 | > 100 | 49.5 µM | 5.02 µM | 8.46 µM | 52.9 µM | 12.7 | 20.3 µM | 11.9 | 16.6 | 2.76 | 39.7 | 4.28 µM | 1.85 µM | 2.91 µM | 8.32 µM | 3.73 | 5.01 | 3
CS(=O)(=O)CCNCc1cc(-c2cc3c(Nc4ccc(OCc5cccc(F)c5)c(Cl)c4)ncnc3s2)cs1 | > 25 | > 25 | 13.1 | > 25 µM | > 25 µM | 21.5 µM | > 25 µM | > 25 | > 25 µM | > 25 | 10.8 | 17.2 | 5.41 | 16.5 µM | 4.52 µM | 6.59 µM | 6.82 µM | 15 | 4.34 | 13
O=C(O)c1ccc(NCn2nc(-c3ccccc3O)oc2=S)cc1 | > 100 | > 100 | > 100 | > 100 µM | > 100 µM | 93.7 µM | > 100 µM | > 100 | 82.6 µM | > 100 | 49.1 | 59.6 | 38.6 | > 100 µM | > 100 µM | 29.2 µM | > 100 µM | 38.9 | 33.8 | 59.9
COc1cc2ncn(-c3cc(OCc4ccccc4C(F)(F)F)c(C(=O)N(C)C)s3)c2cc1OC | > 25 | > 25 | > 25 | > 25 µM | > 25 µM | > 25 µM | > 25 µM | > 25 | > 23.9 µM | > 25 | > 25 | > 21.9 | > 25 | 17.7 µM | 9.69 µM | > 25 µM | > 21.8 µM | > 25 | 6.66 | > 19
NCCSSCCN | > 100 | > 100 | > 100 | > 100 µM | > 100 µM | > 100 µM | > 100 µM | > 100 | > 100 µM | > 100 |  |  |  |  |  |  |  |  |  | 
CN(CCCCCl)P(=O)(OCCS(=O)(=O)CC(NC(=O)CCC(N)C(=O)O)C(=O)NC(C(=O)O)c1ccccc1)OCC1OC(n2ccc(N)nc2=O)C(F)(F)C1O (stereo not drawn) | > 100 | > 100 | > 100 | > 100 µM | 2.7 µM | > 100 µM | > 100 µM | > 100 | 8.63 µM | > 100 |  | 0.783 | 0.586 | < 0.0172 µM | < 0.0213 µM | 24.5 µM | 14.7 µM | 1.44 | 0.379 | 5.24
O=[N+]([O-])c1cc(Cl)c2[nH]c3c(Cl)cc([N+](=O)[O-])cc3c2c1 | > 100 | 5.34 | > 100 | 1.23 µM | 1.38 µM | > 100 µM | > 100 µM | > 100 | 0.405 µM | > 100 | 0.284 | 0.326 | 0.431 | 0.253 µM | 0.189 µM | 0.331 µM | 0.279 µM | 0.576 | 0.0596 | 0.379
CC1CCC2(NC1)OC1CC3C4CC=C5CC(O)CCC5(C)C4CCC3(C)C1C2C (stereo not drawn) | > 100 | > 100 | > 100 | 35.9 µM and 49 µM | 37.8 µM and 13.8 µM | > 100 µM and 56 µM | > 100 µM and 32.5 µM | > 100 | 49.5 µM and 46.2 µM | > 100 |  |  |  | 10.6 µM and 5.16 µM | 18.2 µM and 6.3 µM | 31.7 µM and 15.2 µM | 28 µM and 8.98 µM |  |  | 
Cc1nc(-c2ccccc2)n2nc(NCCCN3CCOCC3)ncc12 | > 25 | > 25 | > 25 | > 25 µM | 24.4 µM | > 25 µM | > 25 µM | > 25 | > 25 µM | > 25 | > 25 | > 25 | > 25 | > 25 µM | 4.48 µM | > 25 µM | > 25 µM | > 25 | 10.6 | > 25
Cc1ncc(C(=O)Nc2ccc(CN3CCN(C)CC3)c(C(F)(F)F)c2)cc1C#Cc1cnc2cccnn12 | 0.663 | 3.72 | 14.5 | 5.98 µM | 1.91 µM | 4.28 µM | 2.52 µM | 2.59 | 2.87 µM | 4.79 | 0.136 | 1.23 | 0.199 | 0.339 µM | 0.242 µM | 0.446 µM | 0.643 µM | 0.239 | 0.253 | 0.651
COC(=O)C1C(O)CCC2CN3CCc4c([nH]c5ccccc45)C3CC21 (stereo not drawn) | > 100 | > 100 | > 100 | > 100 µM | > 100 µM | > 100 µM | > 100 µM | > 100 | > 100 µM | > 100 |  |  |  |  |  |  |  |  |  | 
Cn1c(C(=O)c2ccncc2)cc2ccccc21 | > 100 | > 100 | > 100 | > 100 µM | > 100 µM | > 100 µM | > 100 µM | > 100 | > 100 µM | > 100 | > 100 | > 100 | 92.8 | 46 µM | 27.4 µM | > 100 µM | 49.7 µM | 52.8 | 40.2 | 80.7
CC(C)CCC[C@@H](C)[C@H]1CC[C@H]2[C@@H]3CC[C@H]4C[C@@H](CCC=C(c5cc(Cl)c(O)c(C(=O)O)c5)c5cc(Cl)c(O)c(C(=O)O)c5)CC[C@]4(C)[C@H]3CC[C@]12C | > 100 | > 100 | > 100 | > 100 µM | > 100 µM | > 100 µM | > 100 µM | > 100 | > 100 µM | > 100 |  |  |  |  |  |  |  |  |  | 
OCc1ccc(N2CCc3cccc(F)c3C2)cc1Cl | 53.4 | 36.7 | 35.5 | 41.9 µM | 46.6 µM | 11 µM | 0.0505 µM | > 79.7 | 14.2 µM | 47.9 |  | 16.9 | 0.0334 | 5.85 µM | 14.5 µM | 1.96 µM | < 0.0169 µM | < 0.0209 | 0.0873 | 16
O=C1CC2C(=O)c3ccccc3CC2c2ccccc21 (stereo not drawn) | > 100 | > 100 | > 100 | > 100 µM | > 100 µM |  | > 100 µM | > 100 | > 100 µM | > 100 |  |  |  |  |  |  |  |  |  | 
Cn1c(-c2c(N)n(Nc3cccc(Cl)c3)c3nc(C#N)c(C#N)nc23)nc2ccccc21 | > 50 | 1.97 |  | 26.4 µM | 11.3 µM | 16.9 µM | 33.5 µM | > 50 | > 50 µM | 33.9 | 4.96 | 0.0816 |  | 7.56 µM | 3.74 µM | 6.95 µM | 6.96 µM | 7.94 | 16.5 | 10.5
COc1ccc(/C=C/C(=O)/C=C/c2cc3ccccc3[nH]c2=O)cc1 | 11.1 | 6.19 | 5.94 | 22.4 µM | 17.9 µM | 4.13 µM | 7.91 µM | 4.56 |  | 7.81 | 2.11 | 2.25 | 2.47 | 3.55 µM | 3.48 µM | 2.19 µM | 2.85 µM | 1.89 |  | 2.38
COc1cc(C2SCCCCCCCCCCSC(c3ccc(O)c(OC)c3)SCCCCCCCCCCS2)ccc1O (stereo not drawn) | > 100 | > 100 | > 100 | > 100 µM | > 100 µM |  |  | > 100 | > 100 µM | > 100 |  |  |  |  |  |  |  |  |  | 
COc1ccc(NC(=O)CSC2=C(Nc3cccc(Br)c3)C(=O)N(Cc3ccccc3)C2=O)cc1Cl | > 100 | > 100 | > 100 | > 100 µM | > 100 µM |  | > 100 µM | > 100 | > 100 µM | > 100 | 15.9 | 51.6 | > 100 | > 100 µM | 12.5 µM |  | > 100 µM | > 100 | 24.5 | 8.82

Source: PubChem BioAssay (NCI)
